The results in this text go back to patent US20240269298A1, “PHOSPHONYL DERIVATIVE, AND COMPOSITION AND PHARMACEUTICAL APPLICATION THEREOF” (XIZANG HAISCO PHARMACEUTICAL CO., LTD., priority 2021, published 2024).

Broadly, the IC50 is the point on the concentration scale where inhibition reaches its midpoint. In general, AUC(0-t) refers to the area under the concentration-time curve up to a stated or last time point. A low value points to low exposure. The DC50 is the midpoint of the concentration-degradation curve. Usually AUC stands for concentration integrated over time. Higher therefore signals more exposure. The half-life is how long it takes for the measured level to halve.

The test system of data set [1] is NCI-H1975 (EGFR-L858R-T790M) cells. Put plainly: Inhibitory activity on proliferation of NCI-H1975 (EGFR-L858R-T790M) cells (CTG, 72 h). The data set is classed as cell-based. The note with it: Homo sapiens. The method in brief: (§1)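 Cells plated at 1000/well (NCI-H1975, RPMI1640+10% FBS) or 3000/well (A431, DMEM+10% FBS), dosed next day with compounds (0.1% DMSO final) for 72 h at 37 °C, 5% CO2. Viability by CTG luminescence, normalised to vehicle control; IC50 from nonlinear-regression dose-survival curves.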

In a further data set the test system is A431 (EGFR-WT) cells. Put plainly: Inhibitory activity on proliferation of A431 (EGFR-WT) cells (CTG, 72 h). The data set is classed as cell-based. The note with it: Homo sapiens, A-431. The method, boiled down:
as §1

In data set [2] the test system is NCI-H1975 EGFR-L858R-T790M-C797S cells. Put plainly: Inhibitory activity on proliferation of NCI-H1975 EGFR-L858R-T790M-C797S cells (CellTiter-Glo, 72 h). The data set is classed as cell-based. The following applies: Homo sapiens. The method in brief:
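Cells (1500/well) exposed to graded compound concentrations for 72 h at 37 °C in hygromycin-free RPMI1640 + 10% FBS, 0.1% DMSO vehicle. Viability by CellTiter-Glo luminescence relative to vehicle; IC50 from nonlinear sigmoidal dose-survival fit.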
For orientation: In ATP-based viability assays light output follows the ATP content of the culture.

Data set [3] is described as follows: Pharmacokinetic test in mice. It counts as in vivo. The note with it: male, ICR, mouse, po, administration i.g. (10 mg/kg), plasma. The method, boiled down:
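Male ICR mice (20-25 g), fasted 12-14 h before dosing and fed 4 h after, received a single intravenous or intragastric dose. Orbital plasma sampled from 0 to 24 h (5 min-24 h points); LC-MS/MS quantitation for PK parameters and bioavailability.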

In data set [4] the target is T1, EGFR protein in NCI-H1975 EGFR-L858R-T790M-C797S cells (Homo sapiens, UniProt P00533, C797S/L858R/T790M).
T1 construct: expressed in transfected cells; host or cells: NCI-H1975 EGFR-L858R-T790M-C797S (kept under hygromycin selection)
Put plainly: Degradation activity on EGFR protein in NCI-H1975 EGFR-L858R-T790M-C797S cells, Method II (western blot, 48 h). It counts as cell-based. The following applies: 48 h incubation, EGFR protein relative to DMSO control. The method, then:
Protein sample preparation: NCI-H1975 EGFR-L858R-T790M-C797S cells were cultured in an incubator at 37° C. with 5% CO2, and the culture medium was RPMI1640+10% FBS+100 μg/mL hygromycin. The cells in the logarithmic phase were collected, and the cell suspension was adjusted to an appropriate concentration with a hygromycin-free culture medium, plated on a 6-well plate at a density of 350000 cells/well and a volume of 2 mL, and cultured overnight in an incubator at 37° C. with 5% CO2. The next day, the compounds at different concentrations were added. DMSO control wells were provided, wherein the concentration of DMSO in all wells was 0.1%. The 6-well plate was cultured in an incubator at 37° C. with 5% CO2 for 48 h, and then 30 μL of RIPA lysates (Beyotime, Cat. P0013B) containing protease inhibitors (Beyotime, Cat. P0013B) were added. The mixtures were lysed on ice for 30 min. Centrifugation was carried out at 13000 rpm/min at 4° C. for 20 minutes to collect protein supernatant samples, and protein quantification was performed by the BCA method. Western Blot detection samples were prepared.
Western blot detection: 20 μg of protein samples were added to each well, subjected to polyacrylamide gel electrophoresis and transferred to a membrane, and then diluted anti-EGFR (CST, Cat. 4267S) and […] (Kangchen, Cat. KC-5G4) antibodies were added and incubated overnight at 4° C. After washing the membrane, diluted goat anti-rabbit (Licor, Cat. 926-32211) and goat anti-mouse (Licor, Cat. 926-68070) antibodies were added and incubated in the dark for 45 min. Scanning and detection at wavelengths of 700 nm and 800 nm were performed with a far-infrared imaging system (Odyssey).
According to formula (3), the expression level of EGFR protein in the cells relative to the DMSO control group was calculated after incubation with different concentrations of compounds. wherein EGFRcompound was the fluorescence value of EGFR protein after incubation with compounds, and EGFRvehicle was the fluorescence value of EGFR protein in the DMSO control group. Using the Origin 9.2 software, the drug concentration DC50 values when the expression level of EGFR protein was 50% relative to the DMSO control group were calculated.
(A western blot detects proteins with antibodies after separation by electrophoresis.)

[5] abbreviates: read-out: IC50 (value in brackets).

Structures are written as SMILES. Read-outs that look alike come from different tables or passages of the source.

T1 sequence (P00533 25-1210 T790M/C797S/L858R): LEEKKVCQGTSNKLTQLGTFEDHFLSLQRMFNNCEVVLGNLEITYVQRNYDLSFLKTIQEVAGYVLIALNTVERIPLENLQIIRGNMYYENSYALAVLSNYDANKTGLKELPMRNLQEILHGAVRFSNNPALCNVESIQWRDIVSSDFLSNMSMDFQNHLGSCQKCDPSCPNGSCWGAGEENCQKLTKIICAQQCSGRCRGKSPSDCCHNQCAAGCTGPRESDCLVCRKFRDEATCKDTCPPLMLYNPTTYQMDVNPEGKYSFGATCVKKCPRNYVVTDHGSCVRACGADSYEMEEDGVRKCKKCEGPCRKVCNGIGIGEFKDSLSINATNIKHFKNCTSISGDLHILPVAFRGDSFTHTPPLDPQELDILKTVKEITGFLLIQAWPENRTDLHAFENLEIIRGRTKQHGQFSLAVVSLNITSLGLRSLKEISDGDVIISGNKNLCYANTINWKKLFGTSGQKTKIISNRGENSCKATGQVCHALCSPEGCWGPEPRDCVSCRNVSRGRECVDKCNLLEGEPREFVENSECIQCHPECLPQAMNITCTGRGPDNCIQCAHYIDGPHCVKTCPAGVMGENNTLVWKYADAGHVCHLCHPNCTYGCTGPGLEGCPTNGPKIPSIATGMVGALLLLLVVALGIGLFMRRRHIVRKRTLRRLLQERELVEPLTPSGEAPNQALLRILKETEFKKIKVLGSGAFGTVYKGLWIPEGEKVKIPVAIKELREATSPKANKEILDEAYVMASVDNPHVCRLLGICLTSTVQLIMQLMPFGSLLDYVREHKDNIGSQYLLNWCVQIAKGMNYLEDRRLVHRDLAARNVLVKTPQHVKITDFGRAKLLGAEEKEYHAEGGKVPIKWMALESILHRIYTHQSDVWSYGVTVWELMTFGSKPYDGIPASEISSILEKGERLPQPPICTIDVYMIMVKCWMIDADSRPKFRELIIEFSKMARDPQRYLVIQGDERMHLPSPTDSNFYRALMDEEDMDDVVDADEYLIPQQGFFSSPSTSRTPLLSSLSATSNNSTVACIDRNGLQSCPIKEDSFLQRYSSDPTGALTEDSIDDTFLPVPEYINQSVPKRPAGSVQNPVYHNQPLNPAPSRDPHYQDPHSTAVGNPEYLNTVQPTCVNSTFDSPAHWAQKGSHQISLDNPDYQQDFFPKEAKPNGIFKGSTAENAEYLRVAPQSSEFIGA

Consider `COc1cc(N2CCN(C[C@@H]3CCN(c4ccc5c(c4)C(=O)N(C4CCC(=O)NC4=O)C5=O)C3)CC2)c(-c2cnn(C)c2)cc1Nc1ncc(Br)c(Nc2ccc(-c3ccccc3)cc2P(C)(C)=O)n1` (stereo partly drawn) [Compound 103, 5-((S)-3-((4-(4-((5-bromo-4-((3-(dimethylphosphoryl)-[1,1′-biphenyl]-4-yl)amino)pyrimidin-2-yl)amino)-5-methoxy-2-(1-methyl-1H-pyrazol-4-yl)phenyl)piperazin-1-yl)methyl)pyrrolidin-1-yl)-2-(2,6-dioxopiperidin-3-yl)isoindoline-1,3-dione], for which the IC50 in data set [1] (read-out: IC50 (class symbol)) is less than 100 nM; in data set [1] (setting [5]), 61 nM; with A431 (EGFR-WT) cells, no less than 10000 nM; in data set [2] (read-out: IC50 (class symbol)) it was less than 200 nM; in data set [2] (read-out: IC50 (value)), 101 nM. For the same compound, the AUC(0-t) in data set [3] was determined as 34700 ng·h/mL. The compound also returned a DC50 in data set [4] of less than 100 nM.
In the case of `COc1cc(N2CCC(CN3CCN(c4ccc5c(c4)C(=O)N(C4CCC(=O)NC4=O)C5=O)CC3)CC2)c(-c2cnn(C)c2)cc1Nc1ncc(Br)c(Nc2ccccc2P(C)(C)=O)n1` (centres unmarked) [Compound 108, 5-(4-((1-(4-((5-bromo-4-((2-(dimethylphosphoryl)phenyl)amino)pyrimidin-2-yl)amino)-5-methoxy-2-(1-methyl-1H-pyrazol-4-yl)phenyl)piperidin-4-yl)methyl)piperazin-1-yl)-2-(2,6-dioxopiperidin-3-yl)isoindoline-1,3-dione], the IC50 in data set [1] (read-out: IC50 (class symbol)) was less than 100 nM; in data set [1] (setting [5]), 42 nM; in the data set with A431 (EGFR-WT) cells, no less than 10000 nM; in data set [2] (read-out: IC50 (class symbol)), less than 200 nM; in data set [2] (read-out: IC50 (value)) it was 135 nM. In data set [3], the AUC is 71000 ng·h/mL. In addition, the half-life in data set [3] is 4.83 h. In data set [4], this compound displayed a DC50 of less than 100 nM.
Regarding `COc1cc(N2CCN(C[C@H]3CCN(c4ccc5c(c4)C(=O)N(C4CCC(=O)NC4=O)C5=O)C3)CC2)c(-c2cnn(C)c2)cc1Nc1ncc(Br)c(Nc2ccc(-c3ccccc3)cc2P(C)(C)=O)n1` (stereo partly drawn) [Compound 104, 5-((R)-3-((4-(4-((5-bromo-4-((3-(dimethylphosphoryl)-[1,1′-biphenyl]-4-yl)amino)pyrimidin-2-yl)amino)-5-methoxy-2-(1-methyl-1H-pyrazol-4-yl)phenyl)piperazin-1-yl)methyl)pyrrolidin-1-yl)-2-(2,6-dioxopiperidin-3-yl)isoindoline-1,3-dione], the IC50 in data set [1] (read-out: IC50 (class symbol)) was less than 100 nM; in data set [1] (setting [5]), 54 nM; with A431 (EGFR-WT) cells, no less than 10000 nM; in data set [2] (read-out: IC50 (class symbol)), less than 200 nM; in data set [2] (read-out: IC50 (value)), 82 nM. Moreover, the AUC(0-t) in data set [3] worked out at 47300 ng·h/mL. This compound came in with a DC50 in data set [4] of less than 100 nM.
In the case of `COc1cc(N2CCC(CN3CCN(c4ccc5c(c4)C(=O)N(C4CCC(=O)NC4=O)C5=O)CC3)CC2)c(-c2cnn(C)c2)cc1Nc1ncc(Cl)c(Nc2ccc(-c3ccccc3F)cc2P(C)(C)=O)n1` (centres unmarked) [Compound 102, 5-(4-((1-(4-((5-chloro-4-((3-(dimethylphosphoryl)-2′-fluoro-[1,1′-biphenyl]-4-yl)amino)pyrimidin-2-yl)amino)-5-methoxy-2-(1-methyl-1H-pyrazol-4-yl)phenyl)piperidin-4-yl)methyl)piperazin-1-yl)-2-(2,6-dioxopiperidin-3-yl)isoindoline-1,3-dione], the IC50 in data set [1] (read-out: IC50 (class symbol)) was 100 to 500 nM; in data set [1] (setting [5]) it was 150 nM; in the data set on A431 (EGFR-WT) cells, no less than 10000 nM; in data set [2] (read-out: IC50 (class symbol)), less than 200 nM; in data set [2] (read-out: IC50 (value)), 152 nM. The compound further registered an AUC in data set [3] of 87900 ng·h/mL. In data set [3], the half-life was 9.49 h. The compound also had a DC50 in data set [4] of less than 100 nM.
With `COc1cc(N2CCC(N3CCN(c4ccc5c(c4)C(=O)N(C4CCC(=O)NC4=O)C5=O)CC3)CC2)c(-c2cnn(C)c2)cc1Nc1ncc(Br)c(Nc2ccc(C3CC3)cc2P(C)(C)=O)n1` (centres unmarked) [Compound 112, 5-(4-(1-(4-((5-bromo-4-((4-cyclopropyl-2-(dimethylphosphoryl)phenyl)amino)pyrimidin-2-yl)amino)-5-methoxy-2-(1-methyl-1H-pyrazol-4-yl)phenyl)piperidin-4-yl)piperazin-1-yl)-2-(2,6-dioxopiperidin-3-yl)isoindoline-1,3-dione], the IC50 in data set [1] (read-out: IC50 (class symbol)) is less than 100 nM; in data set [1] (setting [5]), 83 nM; in the data set on A431 (EGFR-WT) cells, no less than 10000 nM; in data set [2] (read-out: IC50 (class symbol)), less than 200 nM; in data set [2] (read-out: IC50 (value)), 127 nM. In data set [4], this compound came in with a DC50 of less than 100 nM.
For `COc1cc(N2CCC(CN3CCN(c4ccc5c(c4)C(=O)N(C4CCC(=O)NC4=O)C5=O)CC3)CC2)c(-c2cnn(C)c2)cc1Nc1ncc(Cl)c(Nc2ccccc2P(C)(C)=O)n1` (centres unmarked) [Compound 109, 5-(4-((1-(4-((5-chloro-4-((2-(dimethylphosphoryl)phenyl)amino)pyrimidin-2-yl)amino)-5-methoxy-2-(1-methyl-1H-pyrazol-4-yl)phenyl)piperidin-4-yl)methyl)piperazin-1-yl)-2-(2,6-dioxopiperidin-3-yl)isoindoline-1,3-dione], the values for the IC50 (in data set [1] (read-out: IC50 (class symbol)); in data set [1] (setting [5]); in the data set on A431 (EGFR-WT) cells) were less than 100 nM, 52 nM and no less than 10000 nM, respectively. This compound came in with an area under the curve (AUC) in data set [3] of 81500 ng·h/mL. Further, the half-life in data set [3] is 4.53 h. The same compound showed a DC50 in data set [4] of less than 100 nM.
`COc1cc(N2CCC(N3CCN(c4ccc5c(c4)C(=O)N(C4CCC(=O)NC4=O)C5=O)CC3)CC2)c(-c2cnn(C)c2)cc1Nc1ncc(Cl)c(Nc2ccc(C3CC3)cc2P(C)(C)=O)n1` (centres unmarked) [Compound 113, 5-(4-(1-(4-((5-chloro-4-((4-cyclopropyl-2-(dimethylphosphoryl)phenyl)amino)pyrimidin-2-yl)amino)-5-methoxy-2-(1-methyl-1H-pyrazol-4-yl)phenyl)piperidin-4-yl)piperazin-1-yl)-2-(2,6-dioxopiperidin-3-yl)isoindoline-1,3-dione]: the IC50 in data set [1] (read-out: IC50 (class symbol)) is less than 100 nM; in data set [1] (setting [5]), 68 nM; in the data set on A431 (EGFR-WT) cells, no less than 10000 nM. In addition, the DC50 in data set [4] was less than 100 nM.
`COc1cc(N2CCN(C[C@H]3CCN(c4ccc5c(c4)C(=O)N(C4CCC(=O)NC4=O)C5=O)C3)CC2)c(-c2cnn(C)c2)cc1Nc1ncc(Br)c(Nc2ccc(-c3ccccc3F)cc2P(C)(C)=O)n1` (stereo partly drawn) [Compound 117, 5-((R)-3-((4-(4-((5-bromo-4-((3-(dimethylphosphoryl)-2′-fluoro-[1,1′-biphenyl]-4-yl)amino)pyrimidin-2-yl)amino)-5-methoxy-2-(1-methyl-1H-pyrazol-4-yl)phenyl)piperazin-1-yl)methyl)pyrrolidin-1-yl)-2-(2,6-dioxopiperidin-3-yl)isoindoline-1,3-dione]: the IC50 is less than 100 nM in data set [1] (read-out: IC50 (class symbol)); 51 nM in data set [1] (setting [5]); no less than 10000 nM in the data set with A431 (EGFR-WT) cells; less than 200 nM in data set [2] (read-out: IC50 (class symbol)); 79 nM in data set [2] (read-out: IC50 (value)). Moreover, the AUC(0-t) in data set [3] was found to be 101000 ng·h/mL. The compound also gave a DC50 in data set [4] of less than 100 nM.
